Measurements taken from publication PMC12439166, “Dietary flavonoids form supramolecular assemblies, alter biochemistry, and enhance cell resilience” (Frontiers in Nutrition, 2025).

Test system: human fibroblasts
Experiment: TMT proteomics of fibroblasts with and without UV exposure, differential expression and pathway analysis
Format: cell-based
Conditions: result in words
Procedure: Human fibroblasts were obtained from Cell Applications Inc (Cat. # 106-05a) and were maintained in Dulbecco’s Modified Eagle medium (DMEM, Corning, Cat. #10-013-CV) with 10% fetal bovine serum (Gibco, Cat. #10082147) and 1% penicillin/streptomycin (Gibco, Cat. # 15070-063) in a humidified incubator with 5% CO2 at 37 °C. For ultraviolet radiation, fibroblasts were seeded in a 96-well plate at a density of 25,000 cells/well and maintained at 37 °C for 24 h. Cells were washed once with Hanks’ balanced salt solution (HBSS, Gibco, Cat. #14025-092), then treated for 1 h with different concentrations of compounds prepared in HBSS. Vitamin C (Sigma, Cat. # A5960) served as a positive control. Treated cells were exposed to ultraviolet light (UVP cross-linker, CL1000, 254 nm UV, 8 watts) at a total dose of 20 mJ/cm^2. Following irradiation, the HBSS was replaced with culture medium containing the same concentration of compounds as before irradiation, and cells were again maintained at 37 °C. Cell viability was measured at 24 h post-irradiation using CellTiter-Glo according to the manufacturer’s instructions (Promega, Cat.# G7571). Results were expressed as relative cell viability (%) with respect to control cells (cells without ultraviolet irradiation or compound treatment).
Frozen cell pellets were dissolved for 15 min in 6M Guanidinium Chloride at room temperature to lyse cells. Then, each solution was run on a 10 kDa filter (Pall, TX) and washed with 50 μL of TEAB buffer at 3000 rpm. FASP Digestion ([56]): A stock solution of Trypsin Platinum, Mass Spec Grade (Promega) at 100 μg/mL in 50 mM TEAB, and a specific volume of stock trypsin was added to each sample vial for each set of […] using a 1:50 ratio (Trypsin:Protein). Samples were incubated for 2 h at 50 °C and shaken/mixed at 350 rpm on an Eppendorf ThermoMixer C. TMT Labeling: Samples, now peptides, were labeled using 4 μL of TMTpro Mass Tag Labels (ThermoScientific). After labeling, samples were then shaken/mixed for 45 min to ensure labels were covalently bonded to peptides. The labeling reaction was quenched for 10 min using 1 μL of 5% hydroxyalamine. After quenching, samples were pooled into one 2 mL Eppendorf tube and then dried down using an Eppendorf Vacufuge Plus. Desalting Samples: Dried samples were resuspended in 300 μL of 0.1% TFA in ultrapure HPLC-grade water and vortexed to ensure full solubility. Samples were then desalted using Pierce^TM Peptide Desalting Spin Columns (ThermoScientific). Final eluates (desalted samples) contained 600 μL of 50% HPLC-grade Acetonitrile and 50% ultrapure HPLC-grade water. Desalted samples were then transferred to HPLC vials and were again dried down. […]

## O=c1c(O[C@@H]2O[C@H](CO)[C@@H](O)[C@H](O)[C@H]2O)c(-c2ccc(O)c(O)c2)oc2cc(O)cc(O)c12 [isoquercitrin]
UV-irradiated cells
  proteins/pathways up- and downregulated, exposed to UV radiation: upregulation of collagen and cell cycle/DNA repair proteins while downregulating proteins associated with autophagy, necroptosis, ferroptosis, lysosomal degradation, and other pathways
Control conditions without UV
  proteins/pathways up- and downregulated, without UV treatment: upregulated proteins associated with DNA repair pathways and downregulated inflammatory pathways
